Read-outs that look alike come from different tables or passages of the source.

Data set [1] concerns kidney water channels. Conditions: as illustrated in FIG. 1.
The conditions of data set [2]: in vivo, cited from earlier work; for % Bioavailability: human.
For data set [3] the following is noted: human, in vivo; cited from earlier work.
The conditions of data set [4]: in vivo; cited from earlier work.

As for `NC(=O)CC[C@@H]1NC(=O)[C@H](Cc2ccccc2)NC(=O)[C@H](Cc2ccc(O)cc2)NC(=O)CCSSC[C@@H](C(=O)N2CCC[C@H]2C(=O)N[C@H](CCCN=C(N)N)C(=O)NCC(N)=O)NC(=O)[C@H](CC(N)=O)NC1=O` [desmopressin, 1-desamino-8-D-arginine vasopressin], in data set [1], the “blood concentration sufficient to activate kidney water channels and induce an antidiuretic effect” value is “about 0.8 pg/ml”. In data set [2] (po), the “% Bioavailability” value is on record as 0.1-0.15% and the “ranges for peak blood levels” value is on record as 10-20 fold. Also, in data set [2] (sc), the “% Bioavailability” value was “Subcutaneous (±90) %”. Besides, the half life in data set [3] is 1.5 to 2.0 h. Moreover, in data set [4], the undesirable side-effects result is “high incidences of hyponatremia”.

Source of the values: US9375530B2 (Allergan, Inc., priority 2007, dated 2016).
